Assay results from patent US20120028897A1, “METHODS AND COMPOSITIONS FOR THE TREATMENT OF FLUID RETENTION DISORDERS” (priority 2008, published 2012).

How the values were obtained:
[1] = Interconversion of huUgn A and B isomers in vitro (storage at −80° C.; pH 4, 50° C.); type: physicochemical; settings: LC-MS at periodic intervals
Experimental: FIG. 2C is a graph showing the amount of “UgnA like” activity as a function of time in cells treated with either huUgnA and huUgnB. The A and B isomers (filled and open circles, respectively) interconvert slowly in vitro. Peptides were incubated at 50° C. in 1 mM citrate buffer (pH 4) for either 0, 24, or 48 hr. Samples were then diluted into bioassay medium, the pH was adjusted to 7.0, and activity was measured in the T84 cell bioassay. A huUgnA standard curve was generated in the same assay, and cyclic GMP responses were converted to recoveries of “UgnA-like” peptide by interpolation on this standard curve.
HPLC analysis and mass spectroscopy of Ugn isomers. The integrity and purity of huUgnA and B isomer preparations were confirmed by liquid chromatography/mass spectroscopy (LC-MS) analysis. The two Ugn isomers have different retention times on a reverse phase HPLC column (FIG. 1, dashed trace; huUgnA elutes ˜0.35 minutes before huUgnB). Separations were performed on a Hypersil Gold AQ 2.1×50 mm column from Thermo Fisher Scientific Inc (Waltham, Mass.) equilibrated in 98% buffer A (0.1% formic acid), 2% buffer B (85:10:5 Acetonitrile/Isopropyl Alcohol/5 mM NH4OAc pH 5.8) with a flow rate of 0.4 ml/min on an Acquity HPLC system. […]

anesthetized rats [2] = test: Renal blood flow (flow probe on left renal artery); type: in vivo, rat
Experimental: Arterial blood pressure was measured with a pressure transducer connected to a cardiovascular analyzer (Model 50110, Stoelting Instruments Wood Dale, Ill.). Left renal blood flow was measured in some rats with a flow probe positioned on the left renal artery and connected to a blood flow monitor (model 1 PRB probe and model T420 monitor, Transonic Systems Inc. Ithaca N.Y.). Arterial pressure, heart rate, and renal blood flow were digitized with an A/D converter (Keithley instruments, Cleveland, Ohio Model KUSB 3100) for display and storage on a Windows-based personal computer using open layers data acquisition software (Dtx_Ez, Data Translation Inc, Marlboro, Mass.). Sodium and potassium concentrations in plasma and urine were measured by flame photometry (Model 943, Instrumentation Laboratory Co., Lexington Mass.). Glomerular filtration rate (GFR) was measured as the renal clearance rate of FITC-labeled inulin
(§1) After post-surgical equilibration (−60 min) and three 20 min control clearance periods, huUgnA or B was infused into the jugular vein at 10 μl/min over a 60 min period, followed by a return to isotonic saline for the remainder of the experiment. The infused doses of huUgnA were 12, 25, 50, 100, or 200 nmol/kg BW in a total of 38 rats; huUgnB doses were 9, 18, 35, 70, and 140 nmol/kg BW in 35 rats. A UgnA mimetic, E. coli STh (ST-core), was infused into a third group of 32 rats at doses of 17, 32, 66, 133, and 266 nmol/kg. Renal excretory responses to these infusions were slow to develop and long lasting, so clearance periods were continued for 2-3 hr after the termination of the peptide infusion. This protracted time course limited protocols to one dose of one peptide in each rat. A control group of 10 rats received isotonic saline at 10 μl/min in place of the peptide infusion, but was otherwise treated in the same way as the experimental groups.

anesthetized rats [3] = test: Urine flow rate during and after iv peptide infusion; type: in vivo, rat
Experimental: Rats were not fasted prior to clearance experiments and ranged in weight from 250-340 g at the time of study. Anesthesia was induced with an intraperitoneal injection of pentobarbital sodium (55 mg/kg BW) and maintained at a surgical plane by intermittent intravenous supplementation. Core temperature was maintained at 37° C. by a servo-controlled, heated operating table. Animals breathed spontaneously through a PE240 cannula inserted into the trachea. A jugular vein was catheterized with PE50 cannula tubing for intravenous infusion of isotonic saline containing FITC-labeled inulin (0.4% W/V, Sigma, St Louis Mo.) and two PE10 cannulae, one for supplemental anesthetic and the other for peptide infusions (described below in the experimental protocol section). The ureters were exposed through a midline ventral incision and cannulated with PE10 tubing about one cm from each kidney. Urine was collected over 20 min periods and the volume estimated by weight. A femoral artery was cannulated with PE50 tubing for continuous measurement of arterial blood pressure and intermittent blood samples (50 μl), taken at the mid point of each urine collection.
as §1
Group comparisons were made with one way analysis of variance (ANOVA) using peptide doses as column variables. Columns were further divided into pre-infusion, infusion, and post infusion subgroups to facilitate post hoc testing with Bonferroni's method for selected multiple comparisons. Row variables were individual measurements from each clearance period for each rat. Responses were tested for statistical significance by comparing control values during the pre-infusion, infusion and post infusion collection periods with corresponding values obtained from peptide-infused rats. Each experimental group included 5 different doses of huUgnA, huUgnB, or ST-core. Thus, fifteen comparisons were required for each measured variable in each group.

SMILES: CC(C)C[C@H](NC(=O)[C@@H]1CSSC[C@@H]2NC(=O)[C@H](CC(C)C)NC(=O)[C@H](CCC(=O)O)NC(=O)[C@@H](NC(=O)[C@H](CC(=O)O)NC(=O)[C@H](CC(=O)O)NC(=O)[C@@H](N)CC(N)=O)CSSC[C@H](NC(=O)[C@H](C)NC(=O)[C@H](C(C)C)NC(=O)[C@H](CC(N)=O)NC(=O)[C@H](C(C)C)NC2=O)C(=O)N[C@@H]([C@@H](C)O)C(=O)NCC(=O)N1)C(=O)O (single isomer, unassigned) [huUgnA, Asn Asp Asp Cys Glu Leu Cys Val Asn Val Ala Cys Thr Gly Cys Leu, reference compound]
- conversion from one isoform to the other during storage [1]: did not occur
- Renal blood flow (RBF) (anesthetized rats [2]; 25 nmol UgnA, before (first value of change), n=4): 2.7+0.3 ml/min/g KW
- Renal blood flow (RBF) (anesthetized rats [2]; after 25 nmol UgnA, p<0.001, n=4): 3.2+0.1 ml/min/g KW
- V (urine flow rate) (anesthetized rats [3]; huUgnA 12 nmol, Infusion): 2.34 ± 0.14 μl/min/g KW
- V (urine flow rate) (anesthetized rats [3]; huUgnA 12 nmol, Post-infuse): 2.73 ± 0.14 μl/min/g KW
- V (urine flow rate) (anesthetized rats [3]; huUgnA 12 nmol, Pre-infuse): 2.07 ± 0.23 μl/min/g KW
- V (urine flow rate) (anesthetized rats [3]; huUgnA 25 nmol, Infusion): 2.98 ± 0.28 μl/min/g KW
- V (urine flow rate) (anesthetized rats [3]; huUgnA 25 nmol, Post-infuse, * p<0.05 vs time control): 3.53 ± 0.25* μl/min/g KW
- V (urine flow rate) (anesthetized rats [3]; huUgnA 25 nmol, Pre-infuse): 2.13 ± 0.17 μl/min/g KW
- V (urine flow rate) (anesthetized rats [3]; huUgnA 50 nmol, Infusion): 2.32 ± 0.16 μl/min/g KW
- V (urine flow rate) (anesthetized rats [3]; huUgnA 50 nmol, Post-infuse): 3.07 ± 0.20 μl/min/g KW
- V (urine flow rate) (anesthetized rats [3]; huUgnA 50 nmol, Pre-infuse): 2.01 ± 0.13 μl/min/g KW
- V (urine flow rate) (anesthetized rats [3]; huUgnA 100 nmol, Infusion): 2.48 ± 0.26 μl/min/g KW
- V (urine flow rate) (anesthetized rats [3]; huUgnA 100 nmol, Post-infuse): 2.67 ± 0.23 μl/min/g KW
- V (urine flow rate) (anesthetized rats [3]; huUgnA 100 nmol, Pre-infuse): 1.76 ± 0.22 μl/min/g KW
- V (urine flow rate) (anesthetized rats [3]; huUgnA 200 nmol, Infusion): 2.84 ± 0.40 μl/min/g KW
- V (urine flow rate) (anesthetized rats [3]; huUgnA 200 nmol, Post-infuse, ** p<0.01 vs time control): 4.12 ± 0.35** μl/min/g KW
- V (urine flow rate) (anesthetized rats [3]; huUgnA 200 nmol, Pre-infuse): 2.14 ± 0.39 μl/min/g KW

SMILES: CC(C)C[C@H](NC(=O)[C@@H]1CSSC[C@@H]2NC(=O)[C@H](CC(C)C)NC(=O)[C@H](CCC(=O)O)NC(=O)[C@@H](NC(=O)[C@H](CC(=O)O)NC(=O)[C@H](CC(=O)O)NC(=O)[C@@H](N)CC(N)=O)CSSC[C@H](NC(=O)[C@H](C)NC(=O)[C@H](C(C)C)NC(=O)[C@H](CC(N)=O)NC(=O)[C@H](C(C)C)NC2=O)C(=O)N[C@@H]([C@@H](C)O)C(=O)NCC(=O)N1)C(=O)O (single isomer, unassigned) [huUgnB, Asn Asp Asp Cys Glu Leu Cys Val Asn Val Ala Cys Thr Gly Cys Leu]
- conversion from one isoform to the other during storage [1]: did not occur
- Renal blood flow (RBF) (anesthetized rats [2]; 35 nmol huUgnB/kg, before (first value of change), n=4): 2.5+0.1 ml/min/g KW
- Renal blood flow (RBF) (anesthetized rats [2]; after 35 nmol huUgnB/kg, p<0.001, n=4): 3.0+0.4 ml/min/g KW
- V (urine flow rate) (anesthetized rats [3]; huUgnB 9 nmol, Infusion): 2.22 ± 0.19 μl/min/g KW
- V (urine flow rate) (anesthetized rats [3]; huUgnB 9 nmol, Post-infuse): 2.55 ± 0.18 μl/min/g KW
- V (urine flow rate) (anesthetized rats [3]; huUgnB 9 nmol, Pre-infuse): 1.84 ± 0.28 μl/min/g KW
- V (urine flow rate) (anesthetized rats [3]; huUgnB 18 nmol, Infusion): 2.40 ± 0.15 μl/min/g KW
- V (urine flow rate) (anesthetized rats [3]; huUgnB 18 nmol, Post-infuse): 3.11 ± 0.32 μl/min/g KW
- V (urine flow rate) (anesthetized rats [3]; huUgnB 18 nmol, Pre-infuse): 1.79 ± 0.14 μl/min/g KW
- V (urine flow rate) (anesthetized rats [3]; huUgnB 35 nmol, Infusion): 2.53 ± 0.16 μl/min/g KW
- V (urine flow rate) (anesthetized rats [3]; huUgnB 35 nmol, Post-infuse, *** p<0.005 vs time control): 3.84 ± 0.27*** μl/min/g KW
- V (urine flow rate) (anesthetized rats [3]; huUgnB 35 nmol, Pre-infuse): 2.38 ± 0.25 μl/min/g KW
- V (urine flow rate) (anesthetized rats [3]; huUgnB 70 nmol, Infusion): 3.11 ± 0.71 μl/min/g KW
- V (urine flow rate) (anesthetized rats [3]; huUgnB 70 nmol, Post-infuse, * p<0.05 vs time control): 3.92 ± 0.5* μl/min/g KW
- V (urine flow rate) (anesthetized rats [3]; huUgnB 70 nmol, Pre-infuse): 2.04 ± 0.20 μl/min/g KW
- V (urine flow rate) (anesthetized rats [3]; huUgnB 140 nmol, Infusion): 2.71 ± 0.40 μl/min/g KW
- V (urine flow rate) (anesthetized rats [3]; huUgnB 140 nmol, Post-infuse, ** p<0.01 vs time control): 4.50 ± 0.80** μl/min/g KW
- V (urine flow rate) (anesthetized rats [3]; huUgnB 140 nmol, Pre-infuse): 2.24 ± 0.14 μl/min/g KW
